Experimental data from PubChem BioAssay (NCI).
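Each compound was tested at five concentrations against cells in 96-well plates for 48 hours. At the TGI there is no net growth.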

What was measured:
Assay in all cases: NCI anticancer screen, dose series, 48 h
NCI-H522 lung = tested on: NCI-H522 lung
ACHN renal = tested on: ACHN renal
SN12C renal = tested on: SN12C renal
MCF7 breast = tested on: MCF7 breast
786-0 renal = tested on: 786-0 renal
HCT-116 colon = tested on: HCT-116 colon
SK-OV-3 ovarian = tested on: SK-OV-3 ovarian
UACC-62 melanoma = tested on: UACC-62 melanoma
SK-MEL-2 melanoma = tested on: SK-MEL-2 melanoma
SF-539 CNS = tested on: SF-539 CNS
M14 melanoma = tested on: M14 melanoma
SNB-75 CNS = tested on: SNB-75 CNS
CAKI-1 renal = tested on: CAKI-1 renal
COLO 205 colon = tested on: COLO 205 colon
SNB-19 CNS = tested on: SNB-19 CNS
BT-549 breast = tested on: BT-549 breast
MDA-MB-435 = tested on: MDA-MB-435
OVCAR-8 ovarian = tested on: OVCAR-8 ovarian
MDA-N = tested on: MDA-N
U251 CNS = tested on: U251 CNS
SK-MEL-28 melanoma = tested on: SK-MEL-28 melanoma
A549 NSCLC = tested on: A549 NSCLC
SR leukemia = tested on: SR leukemia
HT29 colon = tested on: HT29 colon
K-562 leukemia = tested on: K-562 leukemia
OVCAR-4 ovarian = tested on: OVCAR-4 ovarian
HOP-62 NSCLC = tested on: HOP-62 NSCLC
OVCAR-5 ovarian = tested on: OVCAR-5 ovarian
MALME-3M melanoma = tested on: MALME-3M melanoma
LOX IMVI melanoma = tested on: LOX IMVI melanoma
UACC-257 melanoma = tested on: UACC-257 melanoma
T-47D breast = tested on: T-47D breast
A498 renal = tested on: A498 renal
HL-60(TB) leukemia = tested on: HL-60(TB) leukemia
SK-MEL-5 melanoma = tested on: SK-MEL-5 melanoma
EKVX NSCLC = tested on: EKVX NSCLC
MOLT-4 leukemia = tested on: MOLT-4 leukemia
DU-145 prostate = tested on: DU-145 prostate
SF-295 CNS = tested on: SF-295 CNS
SF-268 CNS = tested on: SF-268 CNS
CCRF-CEM leukemia = tested on: CCRF-CEM leukemia
TK-10 renal = tested on: TK-10 renal
UO-31 renal = tested on: UO-31 renal
IGROV1 ovarian = tested on: IGROV1 ovarian
NCI/ADR-RES ovarian = tested on: NCI/ADR-RES ovarian
HOP-92 NSCLC = tested on: HOP-92 NSCLC
SW-620 colon = tested on: SW-620 colon
RXF 393 renal = tested on: RXF 393 renal
RPMI-8226 leukemia = tested on: RPMI-8226 leukemia
NCI-H23 lung = tested on: NCI-H23 lung
KM12 colon = tested on: KM12 colon
NCI-H226 lung = tested on: NCI-H226 lung
HCT-15 colon = tested on: HCT-15 colon
OVCAR-3 ovarian = tested on: OVCAR-3 ovarian
HCC-2998 colon = tested on: HCC-2998 colon
PC-3 prostate = tested on: PC-3 prostate
HS 578T breast = tested on: HS 578T breast
NCI-H460 lung = tested on: NCI-H460 lung

Measured: TGI

O/N=C1\CC2(N3CCOCC3)CCC1(c1ccccc1)CC2
> 100 µM: all assays above
